Results from publication PMC9030254, “Target Hopping from Protein Kinases to PXR: Identification of Small-Molecule Protein Kinase Inhibitors as Selective Modulators of Pregnane X Receptor from TüKIC Library” (Cells, 2022).

Assays:
Test in all cases: Kinase profiling
Format in all cases: biochemical
[1] = biological target: T1, MYLK3 (Homo sapiens, UniProt Q32MK0)
T1 construct: purchased ProQinase (Freiburg, Germany)
T1 sequence (Q32MK0 1-819): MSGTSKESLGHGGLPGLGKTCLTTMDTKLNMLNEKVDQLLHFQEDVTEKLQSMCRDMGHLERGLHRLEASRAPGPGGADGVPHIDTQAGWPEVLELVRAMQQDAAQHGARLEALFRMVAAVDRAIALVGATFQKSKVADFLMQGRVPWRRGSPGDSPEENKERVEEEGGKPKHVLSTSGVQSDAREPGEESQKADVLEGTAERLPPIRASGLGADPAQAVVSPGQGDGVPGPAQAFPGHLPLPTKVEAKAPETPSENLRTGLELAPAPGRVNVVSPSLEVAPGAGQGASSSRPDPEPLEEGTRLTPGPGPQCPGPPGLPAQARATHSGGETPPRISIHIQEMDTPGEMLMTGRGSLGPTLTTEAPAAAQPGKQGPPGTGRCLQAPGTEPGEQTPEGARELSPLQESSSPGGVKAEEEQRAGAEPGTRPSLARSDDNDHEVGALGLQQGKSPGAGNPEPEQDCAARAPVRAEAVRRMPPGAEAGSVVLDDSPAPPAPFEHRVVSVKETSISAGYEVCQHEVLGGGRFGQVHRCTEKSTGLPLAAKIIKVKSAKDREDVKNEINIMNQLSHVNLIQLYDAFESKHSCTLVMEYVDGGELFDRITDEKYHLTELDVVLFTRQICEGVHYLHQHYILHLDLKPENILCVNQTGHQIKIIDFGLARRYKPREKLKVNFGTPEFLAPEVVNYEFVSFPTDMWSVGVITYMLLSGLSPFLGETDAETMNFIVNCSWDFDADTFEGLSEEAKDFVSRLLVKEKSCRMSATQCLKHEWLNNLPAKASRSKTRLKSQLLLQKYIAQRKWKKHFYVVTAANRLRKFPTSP
Method: (§1) The analysis was performed by ProQinase (Freiburg, Germany).

[2] = biological target: T2, EPHA8 (Homo sapiens, UniProt P29322)
T2 construct: purchased ProQinase (Freiburg, Germany)
T2 sequence (P29322 28-1005): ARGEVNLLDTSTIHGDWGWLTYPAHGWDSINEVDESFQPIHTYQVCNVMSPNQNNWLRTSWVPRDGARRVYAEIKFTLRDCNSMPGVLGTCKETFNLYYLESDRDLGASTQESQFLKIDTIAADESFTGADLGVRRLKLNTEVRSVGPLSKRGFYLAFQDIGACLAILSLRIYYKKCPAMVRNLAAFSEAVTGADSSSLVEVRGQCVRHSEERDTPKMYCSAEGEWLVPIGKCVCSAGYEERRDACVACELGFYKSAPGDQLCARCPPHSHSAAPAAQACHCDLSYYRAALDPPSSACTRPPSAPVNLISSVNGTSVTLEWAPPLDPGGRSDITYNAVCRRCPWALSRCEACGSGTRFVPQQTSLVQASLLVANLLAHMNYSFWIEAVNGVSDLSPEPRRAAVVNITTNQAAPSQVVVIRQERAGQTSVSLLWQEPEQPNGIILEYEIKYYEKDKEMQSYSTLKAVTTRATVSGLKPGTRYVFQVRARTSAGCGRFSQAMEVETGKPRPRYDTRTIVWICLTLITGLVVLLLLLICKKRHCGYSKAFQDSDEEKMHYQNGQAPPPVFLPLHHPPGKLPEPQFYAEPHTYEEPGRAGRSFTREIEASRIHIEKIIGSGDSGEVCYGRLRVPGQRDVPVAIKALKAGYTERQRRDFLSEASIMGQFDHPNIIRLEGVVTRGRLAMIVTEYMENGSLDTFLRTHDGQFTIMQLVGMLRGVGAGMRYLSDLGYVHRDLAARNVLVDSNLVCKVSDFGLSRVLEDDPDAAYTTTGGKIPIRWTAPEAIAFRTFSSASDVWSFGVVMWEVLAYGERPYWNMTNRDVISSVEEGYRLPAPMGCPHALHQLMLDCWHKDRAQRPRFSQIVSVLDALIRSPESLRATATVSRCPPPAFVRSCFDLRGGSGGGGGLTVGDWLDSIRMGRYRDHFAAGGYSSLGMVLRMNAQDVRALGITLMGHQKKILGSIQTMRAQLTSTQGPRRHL
Method: as §1

[3] = biological target: T3, PHKG1 (Homo sapiens, UniProt Q16816)
T3 construct: purchased ProQinase (Freiburg, Germany)
T3 sequence (Q16816 whole entry): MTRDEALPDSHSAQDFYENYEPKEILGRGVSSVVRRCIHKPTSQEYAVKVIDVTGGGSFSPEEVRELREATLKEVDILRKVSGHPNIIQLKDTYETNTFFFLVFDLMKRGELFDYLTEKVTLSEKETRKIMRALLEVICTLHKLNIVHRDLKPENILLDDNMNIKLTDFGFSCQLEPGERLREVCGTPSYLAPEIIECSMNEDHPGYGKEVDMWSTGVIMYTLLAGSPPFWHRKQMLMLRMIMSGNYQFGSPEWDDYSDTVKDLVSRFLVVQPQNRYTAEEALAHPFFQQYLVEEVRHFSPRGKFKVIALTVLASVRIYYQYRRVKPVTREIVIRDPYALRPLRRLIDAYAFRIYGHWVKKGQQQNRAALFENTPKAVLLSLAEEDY
Method: as §1

[4] = biological target: T4, GSG2 (Homo sapiens, UniProt Q8TF76)
T4 construct: purchased ProQinase (Freiburg, Germany)
T4 sequence (Q8TF76 1-798): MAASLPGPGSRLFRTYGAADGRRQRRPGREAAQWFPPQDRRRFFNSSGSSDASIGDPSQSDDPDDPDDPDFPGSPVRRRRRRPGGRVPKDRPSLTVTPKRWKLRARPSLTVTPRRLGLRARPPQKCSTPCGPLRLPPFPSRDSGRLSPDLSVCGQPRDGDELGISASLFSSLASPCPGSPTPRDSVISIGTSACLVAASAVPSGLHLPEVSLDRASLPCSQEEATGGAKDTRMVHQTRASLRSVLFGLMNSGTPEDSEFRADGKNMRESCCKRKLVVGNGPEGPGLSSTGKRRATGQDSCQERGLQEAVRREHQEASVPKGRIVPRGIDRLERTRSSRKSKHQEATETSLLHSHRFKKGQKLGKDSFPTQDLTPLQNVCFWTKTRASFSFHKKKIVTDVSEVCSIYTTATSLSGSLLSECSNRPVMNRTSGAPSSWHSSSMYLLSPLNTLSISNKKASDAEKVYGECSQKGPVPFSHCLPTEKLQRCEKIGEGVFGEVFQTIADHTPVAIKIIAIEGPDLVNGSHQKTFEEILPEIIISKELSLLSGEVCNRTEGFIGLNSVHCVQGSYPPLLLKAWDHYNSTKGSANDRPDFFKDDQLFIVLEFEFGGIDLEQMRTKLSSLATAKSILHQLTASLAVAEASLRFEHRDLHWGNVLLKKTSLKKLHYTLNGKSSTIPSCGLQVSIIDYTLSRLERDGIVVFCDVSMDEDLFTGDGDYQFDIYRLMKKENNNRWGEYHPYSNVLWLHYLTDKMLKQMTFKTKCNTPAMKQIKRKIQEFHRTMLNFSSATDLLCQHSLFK
Method: as §1

## O=C(Cc1ccccc1)Nc1ccc(F)c(Nc2ccc3c(c2)CCCCC3=O)c1 [Compound 100]
[1]; 1.0E-05 M
  Residual activity: 70 % of control
[1]; 1.0E-06 M
  Residual activity: 97 % of control
[2]; 1.0E-05 M
  Residual activity: 91 % of control
[2]; 1.0E-06 M
  Residual activity: 98 % of control
[3]; 1.0E-05 M
  Residual activity: 75 % of control
[3]; 1.0E-06 M
  Residual activity: 95 % of control
[4]; 1.0E-05 M
  Residual activity: 78 % of control
[4]; 1.0E-06 M
  Residual activity: 92 % of control

## O=C(Nc1ccc(F)c(Nc2ccc3c(c2)CCCCC3=O)c1)c1cccc(F)c1 [Compound 109]
[1]; 1.0E-05 M
  Residual activity: 80 % of control
[1]; 1.0E-06 M
  Residual activity: 103 % of control
[2]; 1.0E-05 M
  Residual activity: 91 % of control
[2]; 1.0E-06 M
  Residual activity: 110 % of control
[3]; 1.0E-05 M
  Residual activity: 86 % of control
[3]; 1.0E-06 M
  Residual activity: 96 % of control
[4]; 1.0E-05 M
  Residual activity: 68 % of control
[4]; 1.0E-06 M
  Residual activity: 93 % of control
